Non-standard residues stand in square brackets, D forms with d. Residues, ends and D or L forms follow the SMILES beside them. Nle = CCCC[C@H](N)C(=O)O; Ac5c = NC1(C(=O)O)CCCC1; Ahx = NCCCCCC(=O)O; βAla = NCCC(=O)O; Sar = CNCC(=O)O
Biological target: Furin (Homo sapiens, UniProt P09958)
Sequence (P09958 whole entry): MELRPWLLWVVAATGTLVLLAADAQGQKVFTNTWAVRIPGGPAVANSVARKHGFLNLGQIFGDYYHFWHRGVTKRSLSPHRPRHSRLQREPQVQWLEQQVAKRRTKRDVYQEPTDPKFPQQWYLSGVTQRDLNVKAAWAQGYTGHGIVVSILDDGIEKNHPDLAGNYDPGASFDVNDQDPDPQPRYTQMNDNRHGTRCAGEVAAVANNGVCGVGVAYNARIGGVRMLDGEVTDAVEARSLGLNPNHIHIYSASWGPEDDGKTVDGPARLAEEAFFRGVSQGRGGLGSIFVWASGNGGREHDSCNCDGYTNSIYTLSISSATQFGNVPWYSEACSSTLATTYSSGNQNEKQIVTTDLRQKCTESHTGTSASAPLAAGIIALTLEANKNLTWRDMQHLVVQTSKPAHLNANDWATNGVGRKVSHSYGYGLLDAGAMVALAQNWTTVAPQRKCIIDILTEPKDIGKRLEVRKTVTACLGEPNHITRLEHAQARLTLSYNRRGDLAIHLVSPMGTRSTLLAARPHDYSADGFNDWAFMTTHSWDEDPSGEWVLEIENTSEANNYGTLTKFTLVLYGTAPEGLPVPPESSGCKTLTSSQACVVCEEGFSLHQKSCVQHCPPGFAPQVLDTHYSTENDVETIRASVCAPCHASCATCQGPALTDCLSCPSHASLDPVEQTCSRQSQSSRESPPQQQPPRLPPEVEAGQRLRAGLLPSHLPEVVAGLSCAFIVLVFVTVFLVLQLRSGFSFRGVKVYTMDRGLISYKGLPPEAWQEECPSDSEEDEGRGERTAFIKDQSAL

| Compound | Ki [nM] |
| --- | --- |
| CSC[C@H](NC(=O)[C@H](CCCNC(=N)N)NC(=O)[C@H](CCCCN)NC(=O)[C@H](CCCCN)NC(=O)[C@H](CCCNC(=N)N)NC(=O)[C@H](CCCNC(=N)N)NC(=O)[C@H](CCCNC(=N)N)NC(=O)[C@H](C)NC(=O)[C@H](CCCNC(=N)N)NC(=O)[C@H](CCC(N)=O)NC(=O)[C@@H]1CCCN1C(=O)[C@@H](N)[C@@H](C)O)C(=O)O (H-TPQRARRRKKRC(Me)-OH) | 93 |
| C[C@H](NC(=O)[C@H](CCCNC(=N)N)NC(=O)[C@H](CCC(N)=O)NC(=O)[C@@H]1CCCN1C(=O)[C@@H](N)[C@@H](C)O)C(=O)N[C@@H](CCCNC(=N)N)C(=O)N[C@@H](CCCNC(=N)N)C(=O)N[C@@H](CCCNC(=N)N)C(=O)N[C@@H](CCCCN)C(=O)N[C@@H](CCCCN)C(=O)N[C@@H](CCCNC(=N)N)C(=O)NC1(C(=O)O)CCCC1 (H-TPQRARRRKKR[Ac5c]-OH) | > 100 |
| C[C@H](NC(=O)[C@H](CCCNC(=N)N)NC(=O)[C@H](CCC(N)=O)NC(=O)[C@@H]1CCCN1C(=O)[C@@H](N)[C@@H](C)O)C(=O)N[C@@H](CCCNC(=N)N)C(=O)N[C@@H](CCCNC(=N)N)C(=O)N[C@@H](CCCNC(=N)N)C(=O)N[C@@H](CCCCN)C(=O)N[C@@H](CCCCN)C(=O)N[C@@H](CCCNC(=N)N)C(=O)NCCCCCC(=O)O (H-TPQRARRRKKR[Ahx]-OH) | > 100 |
| CCCC[C@H](NC(=O)[C@H](CCCN=C(N)N)NC(=O)[C@H](CCCCN)NC(=O)[C@H](CCCCN)NC(=O)[C@H](CCCN=C(N)N)NC(=O)[C@H](CCCN=C(N)N)NC(=O)[C@H](CCCN=C(N)N)NC(=O)[C@H](C)NC(=O)[C@H](CCCN=C(N)N)NC(=O)[C@H](CCC(N)=O)NC(=O)[C@@H]1CCCN1C(=O)[C@@H](N)[C@@H](C)O)C(=O)O (H-TPQRARRRKKR[Nle]-OH) | > 100 |
| C[C@H](NC(=O)[C@H](CCCN=C(N)N)NC(=O)[C@H](CCC(N)=O)NC(=O)[C@@H]1CCCN1C(=O)[C@@H](N)[C@@H](C)O)C(=O)N[C@@H](CCCN=C(N)N)C(=O)N[C@@H](CCCN=C(N)N)C(=O)N[C@@H](CCCN=C(N)N)C(=O)N[C@@H](CCCCN)C(=O)N[C@@H](CCCCN)C(=O)N[C@@H](CCCN=C(N)N)C(=O)NCCC(=O)O (H-TPQRARRRKKR[βAla]-OH) | > 100 |
| C[C@H](NC(=O)[C@H](C)NC(=O)[C@H](CCCNC(=N)N)NC(=O)[C@@H]1CCCN1C(=O)[C@@H](N)[C@@H](C)O)C(=O)N[C@@H](CCCNC(=N)N)C(=O)N[C@@H](CCCNC(=N)N)C(=O)N[C@@H](CCCCN)C(=O)N[C@@H](CCCCN)C(=O)N[C@@H](CCCNC(=N)N)C(=O)N(C)CC(=O)O (H-TPRAARRKKR[Sar]-OH) | > 100 |
| C[C@H](NC(=O)[C@H](C)NC(=O)[C@H](CCC(=O)O)NC(=O)[C@H](CCCNC(=N)N)NC(=O)[C@@H]1CCCN1C(=O)[C@@H](N)[C@@H](C)O)C(=O)N[C@@H](C)C(=O)N[C@@H](CCCCN)C(=O)N[C@@H](CCCCN)C(=O)N[C@@H](CCCNC(=N)N)C(=O)N(C)CC(=O)O (H-TPREAAAKKR[Sar]-OH) | > 100 |
| C[C@H](NC(=O)[C@H](C)NC(=O)[C@H](CCC(=O)O)NC(=O)[C@H](CCCN=C(N)N)NC(=O)[C@@H]1CCCN1C(=O)[C@@H](N)[C@@H](C)O)C(=O)N[C@@H](CCCN=C(N)N)C(=O)N[C@@H](CCCCN)C(=O)N[C@@H](CCCCN)C(=O)N[C@@H](CCCN=C(N)N)C(=O)N(C)CC(=O)O (H-TPREAARKKR[Sar]-OH) | > 100 |
| C[C@H](NC(=O)[C@H](CCC(=O)O)NC(=O)[C@H](CCCNC(=N)N)NC(=O)[C@@H]1CCCN1C(=O)[C@@H](N)[C@@H](C)O)C(=O)N[C@@H](CCCNC(=N)N)C(=O)N[C@@H](CCCNC(=N)N)C(=O)N[C@@H](CCCCN)C(=O)N[C@@H](CCCCN)C(=O)N[C@@H](CCCNC(=N)N)C(=O)N(C)CC(=O)O (H-TPREARRKKR[Sar]-OH) | > 100 |
| C[C@H](NC(=O)[C@H](C)NC(=O)[C@H](CCCNC(=N)N)NC(=O)[C@H](CCC(=O)O)NC(=O)[C@H](CCCNC(=N)N)NC(=O)[C@@H]1CCCN1C(=O)[C@@H](N)[C@@H](C)O)C(=O)N[C@@H](CCCCN)C(=O)N[C@@H](CCCCN)C(=O)N[C@@H](CCCNC(=N)N)C(=O)N(C)CC(=O)O (H-TPRERAAKKR[Sar]-OH) | > 100 |
| C[C@H](NC(=O)[C@H](CCCNC(=N)N)NC(=O)[C@H](CCC(=O)O)NC(=O)[C@H](CCCNC(=N)N)NC(=O)[C@@H]1CCCN1C(=O)[C@@H](N)[C@@H](C)O)C(=O)N[C@@H](CCCNC(=N)N)C(=O)N[C@@H](CCCCN)C(=O)N[C@@H](CCCCN)C(=O)N[C@@H](CCCNC(=N)N)C(=O)N(C)CC(=O)O (H-TPRERARKKR[Sar]-OH) | > 100 |
| C[C@H](NC(=O)[C@H](C)NC(=O)[C@H](CCCNC(=N)N)NC(=O)[C@H](CCCNC(=N)N)NC(=O)[C@H](CCC(=O)O)NC(=O)[C@H](CCCNC(=N)N)NC(=O)[C@@H]1CCCN1C(=O)[C@@H](N)[C@@H](C)O)C(=O)N[C@@H](CCCCN)C(=O)N[C@@H](CCCNC(=N)N)C(=O)N(C)CC(=O)O (H-TPRERRAAKR[Sar]-OH) | > 100 |
| C[C@H](NC(=O)[C@H](CCCNC(=N)N)NC(=O)[C@H](CCCNC(=N)N)NC(=O)[C@H](CCC(=O)O)NC(=O)[C@H](CCCNC(=N)N)NC(=O)[C@@H]1CCCN1C(=O)[C@@H](N)[C@@H](C)O)C(=O)N[C@@H](CCCCN)C(=O)N[C@@H](CCCCN)C(=O)N[C@@H](CCCNC(=N)N)C(=O)N(C)CC(=O)O (H-TPRERRAKKR[Sar]-OH) | > 100 |
| C[C@H](NC(=O)[C@H](CCCNC(=N)N)NC(=O)[C@H](CCCNC(=N)N)NC(=O)[C@H](CCCNC(=N)N)NC(=O)[C@H](CCC(=O)O)NC(=O)[C@H](CCCNC(=N)N)NC(=O)[C@@H]1CCCN1C(=O)[C@@H](N)[C@@H](C)O)C(=O)N[C@@H](CCCCN)C(=O)N[C@@H](CCCNC(=N)N)C(=O)N(C)CC(=O)O (H-TPRERRRAKR[Sar]-OH) | > 100 |
| C[C@H](NC(=O)[C@H](CCCCN)NC(=O)[C@H](CCCNC(=N)N)NC(=O)[C@H](CCCNC(=N)N)NC(=O)[C@H](CCCNC(=N)N)NC(=O)[C@H](CCC(=O)O)NC(=O)[C@H](CCCNC(=N)N)NC(=O)[C@@H]1CCCN1C(=O)[C@@H](N)[C@@H](C)O)C(=O)N[C@@H](C)C(=O)N(C)CC(=O)O (H-TPRERRRKAA[Sar]-OH) | > 100 |
| C[C@H](NC(=O)[C@H](CCCCN)NC(=O)[C@H](CCCNC(=N)N)NC(=O)[C@H](CCCNC(=N)N)NC(=O)[C@H](CCCNC(=N)N)NC(=O)[C@H](CCC(=O)O)NC(=O)[C@H](CCCNC(=N)N)NC(=O)[C@@H]1CCCN1C(=O)[C@@H](N)[C@@H](C)O)C(=O)N[C@@H](CCCNC(=N)N)C(=O)N(C)CC(=O)O (H-TPRERRRKAR[Sar]-OH) | > 100 |
| C[C@H](NC(=O)[C@H](CCCCN)NC(=O)[C@H](CCCCN)NC(=O)[C@H](CCCN=C(N)N)NC(=O)[C@H](CCCN=C(N)N)NC(=O)[C@H](CCCN=C(N)N)NC(=O)[C@H](CCC(=O)O)NC(=O)[C@H](CCCN=C(N)N)NC(=O)[C@@H]1CCCN1C(=O)[C@@H](N)[C@@H](C)O)C(=O)N(C)CC(=O)O (H-TPRERRRKKA[Sar]-OH) | > 100 |
| C[C@@H](O)[C@H](N)C(=O)N1CCC[C@H]1C(=O)N[C@@H](CCCNC(=N)N)C(=O)N[C@@H](CCC(=O)O)C(=O)N[C@@H](CCCNC(=N)N)C(=O)N[C@@H](CCCNC(=N)N)C(=O)N[C@@H](CCCNC(=N)N)C(=O)N[C@@H](CCCCN)C(=O)N[C@@H](CCCCN)C(=O)N[C@@H](CCCNC(=N)N)C(=O)N(C)CC(=O)O (H-TPRERRRKKR[Sar]-OH) | > 100 |
| H-AAAERRRKKR-OH | > 100 |
| H-AAAERRRKKRG-OH | > 100 |
| H-AAAERRRKKRV-OH | > 100 |

| Compound | Ki [nM] |
| --- | --- |
| H-AARERRRKKR-OH | > 100 |
| H-AARERRRKKRG-OH | > 100 |
| H-AARERRRKKRV-OH | > 100 |
| H-APRERRRKKR-OH | > 100 |
| H-APRERRRKKRG-OH | > 100 |
| H-APRERRRKKRV-OH | > 100 |
| H-GAGAGATPQRARRRKKRW-OH | 127 |
| H-GAGAGATPRARRRKKRF-OH | 56 |
| H-GAGAGATPRARRRKKRT-OH | 47 |
| H-GAGAGATPRARRRKKRY-OH | 57 |
| H-GGGGGGTPQRARRRKKRW-OH | 88 |
| H-GGGGGGTPRARRRKKRF-OH | 45 |
| H-GGGGGGTPRARRRKKRT-OH | 66 |
| H-GGGGGGTPRARRRKKRY-OH | 54 |
| H-GGGTPQRARRRKKRW-OH | 67 |
| H-GGGTPRARRRKKRF-OH | 67 |
| H-GGGTPRARRRKKRT-OH | 39 |
| H-GGGTPRARRRKKRY-OH | 42 |
| H-TAAERRRKKR-OH | > 100 |
| H-TAAERRRKKRG-OH | > 100 |
| H-TAAERRRKKRV-OH | > 100 |

| Compound | Ki [nM] |
| --- | --- |
| H-TARERRRKKR-OH | > 100 |
| H-TARERRRKKRG-NH2 | > 100 |
| H-TARERRRKKRG-OH | > 100 |
| H-TARERRRKKRV-OH | > 100 |
| H-TPAAARRKKR-OH | > 100 |
| H-TPAAARRKKRG-OH | > 100 |
| H-TPAAARRKKRV-OH | > 100 |
| H-TPAARRRKKR-OH | > 100 |
| H-TPAARRRKKRG-OH | > 100 |
| H-TPAARRRKKRV-OH | > 100 |
| H-TPAERRRKKR-OH | > 100 |
| H-TPAERRRKKRG-NH2 | > 100 |
| H-TPAERRRKKRG-OH | > 100 |
| H-TPAERRRKKRV-OH | > 100 |
| H-TPQRARRRKKRA-OH | 115 |
| H-TPQRARRRKKRC-OH | > 100 |
| H-TPQRARRRKKRD-OH | 50 |
| H-TPQRARRRKKRE-OH | 103 |
| H-TPQRARRRKKRH-OH | > 100 |
| H-TPQRARRRKKRI-OH | > 100 |
| H-TPQRARRRKKRL-OH | > 100 |

| Compound | Ki [nM] |
| --- | --- |
| H-TPQRARRRKKRM-OH | 58 |
| H-TPQRARRRKKRN-OH | > 100 |
| H-TPQRARRRKKRP-OH | > 100 |
| H-TPQRARRRKKRQ-OH | > 100 |
| H-TPQRARRRKKRS-OH | > 100 |
| H-TPQRARRRKKRV-OH | 48 |
| H-TPQRDRRRKKRG-OH | > 100 |
| H-TPQRFRRRKKRG-OH | > 100 |
| H-TPQRGRRRKKRG-OH | > 100 |
| H-TPQRHRRRKKRG-OH | > 100 |
| H-TPQRIRRRKKRG-OH | > 100 |
| H-TPQRNRRRKKRG-OH | > 100 |
| H-TPQRPRRRKKRG-OH | > 100 |
| H-TPQRQRRRKKRG-OH | > 100 |
| H-TPQRSRRRKKRG-OH | > 100 |
| H-TPQRTRRRKKRG-OH | > 100 |
| H-TPQRVRRRKKRG-OH | > 100 |
| H-TPQRWRRRKKRG-OH | > 100 |
| H-TPQRYRRRKKRG-OH | > 100 |
